SMILES strings stand for the structures. Like-named read-outs stand apart in the source and are kept apart here.

The values below come from patent US9732085B2, “Pyridinone and pyrimidinone derivatives as factor Xia” (ONO PHARMACEUTICAL CO., LTD., priority 2011, dated 2017).

Data set [1] in a line: Rat oral administration test (plasma concentration via FXIa inhibitory activity). It counts as in vivo. As to conditions: fasted male Crj:CD(SD)IGS rats, single 3 mg/kg p.o., 20% wellsolve, read-out: rat plasma concentration after po administration Cmax at 3 mpk. Here is the method: Each compound of the present invention in a solution of 20% wellsolve (celeste) was given to fasted male Crj:CD(SD)IGS rats as a single 3 mg/kg, p.o. dose by gavage. Blood samples were drawn from jugular vein into syringes containing 3.2% sodium citrate (the volume ratio of blood to anticoagulant=9:1) after oral administration at 0.5, 1, 2, 4 and 6 hours. Plasma was harvested by centrifugation and stored at −20° C. until measurement of plasma concentration.
To measure plasma concentrations of the compounds of the present invention, plasma samples were deproteinized with acetonitrile, followed by evaporation of the acetonitrile to dryness. The residual was then re-dissolved with DMSO and its FXIa inhibitory activity was measured by enzyme assay described above. Plasma concentrations of each compound of the present invention were quantitated by generating a standard curve of known compound concentration in rat plasma.

The target in the next data set is Human Factor XIa (Homo sapiens (Human), UniProt P03951). Put plainly: Factor XIa enzyme activity (chromogenic substrate S-2366). The format is biochemical. As to conditions: read-out: In vitro FXIa inhibitory activity IC50. Here is the method:
Inhibitory activities of compounds of the present invention against factor XIa, Xa, XIIa, IXa, VIIa, plasma kallikrein or thrombin were evaluated using appropriate purified proteases and synthetic substrates. The rate of hydrolysis of the chromogenic substrate by the relevant protease was continuously measured at 405 nm.
Inhibitory activity against each enzyme was calculated as % inhibition using the equation described below. % Inhibition=[[(rate without compound)−(rate with compound)](rate without compound)]×100%. Each half maximal inhibitory concentration (IC50) value was determined by plotting the concentration of compound of the invention against the % inhibition. (1-1) Factor XIa Enzyme Activity
Human Factor XIa (Haematologic Technologies Inc.) activity was measured at an enzyme concentration of 0.1 U/mL in 150 mM NaCl, 5 mM KCl, 1 mg/mL PEG6000, 50 mM HEPES-NaOH (pH7.4) with 300 μM S-2366 (pyroGlu-Pro-Arg-pNA, Chromogenix).

Data set [2] in a line: Pharmacokinetic (PK) study of the compound which has an ester group(s) in rat. It counts as in vivo. The settings on record: plasma, po, fasted male Crj:CD(SD) rats, single 3 mg/kg p.o., analyte: administered ester compound, read-out: rat plasma concentration of ester compound after po administration Cmax at 3mpk. On the procedure: Each compound of the present invention in a solution of 20% wellsolve (celeste) was given to fasted male Crj:CD(SD) rats as a single 3 mg/kg, p.o. dose by gavage. Blood samples were drawn from jugular vein into syringes treated with heparin-diisopropyl fluorophosphate mixture (500:1) at 0.5, 1, 3, 7 hours after oral administration. Plasma was obtained by centrifugation and stored at −20° C. until measurement of plasma concentration.
To measure plasma concentrations of the compounds of the present invention, plasma samples were deproteinized with acetonitrile, followed by evaporation of the acetonitrile to dryness. Then the sample was reconstituted in the mobile phase and analyzed by LC/MS/MS. An analytical column (Shim-pack XR-ODS II, 2.0 mm×75 mm, 2.2 μm) and mobile phase (0.1% formic acid in water and 0.1% formic acid in acetonitrile, flow rate of 0.5 mL/min) were used. The system was used in multiple reaction monitoring (MRM) mode with positive ion detection.

[3] abbreviates: Table 2, comparison with comparative compounds.
Where [4] appears, read: human Factor XIa 0.1 U/mL, 300 μM S-2366, pH7.4.

Sequence of Human Factor XIa (P03951 388-625): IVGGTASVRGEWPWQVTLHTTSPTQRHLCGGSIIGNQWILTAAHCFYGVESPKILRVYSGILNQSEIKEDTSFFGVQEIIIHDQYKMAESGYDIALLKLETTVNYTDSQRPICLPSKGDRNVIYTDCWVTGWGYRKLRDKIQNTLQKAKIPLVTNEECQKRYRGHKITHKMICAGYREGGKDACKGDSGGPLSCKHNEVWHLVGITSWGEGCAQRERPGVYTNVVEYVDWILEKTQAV
Sequence of Human Factor XIa (P03951 19-387 partner): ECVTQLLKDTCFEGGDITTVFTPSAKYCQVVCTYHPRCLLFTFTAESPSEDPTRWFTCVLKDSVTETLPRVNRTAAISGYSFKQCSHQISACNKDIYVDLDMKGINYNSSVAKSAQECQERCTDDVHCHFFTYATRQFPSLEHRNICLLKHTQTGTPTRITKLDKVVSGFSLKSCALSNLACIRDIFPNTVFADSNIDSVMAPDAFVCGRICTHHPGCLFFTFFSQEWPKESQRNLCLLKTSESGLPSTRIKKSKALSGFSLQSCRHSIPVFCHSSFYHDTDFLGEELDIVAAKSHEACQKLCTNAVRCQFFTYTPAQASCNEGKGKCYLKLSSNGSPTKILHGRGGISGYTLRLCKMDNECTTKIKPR

Consider `COC(=O)Nc1ccc(-c2[nH]c([C@H](Cc3ccccc3)NC(=O)CCc3cc(Cl)ccc3-n3cnnn3)nc2Cl)cc1` [Comp Ex 1, reference compound], for which the Cmax in data set [1] stood at 15 nM. For the same molecule, the 50% inhibitory concentration (IC50) at Human Factor XIa (setting [3]) was found to be 3.6 nM.
For the molecule `CCOC(=O)c1ccc(-c2cnc([C@@H]3CCc4cc(-c5cc(Cl)ccc5-n5cnnn5)cc(=O)n43)[nH]2)s1` [Example 401, ethyl 5-(2-{(3S)-7-[5-chloro-2-(1H-tetrazol-1-yl)phenyl]-5-oxo-1,2,3,5-tetrahydro-3-indolizinyl}-1H-imidazol-5-yl)-2-thiophenecarboxylate], the Cmax in data set [2] was found to be 960 nM.
With `COC(=O)Nc1ccc(-c2[nH]c([C@H](C)NC(=O)/C=C/c3cc(Cl)ccc3-n3cnnn3)nc2Cl)cc1` [Comp Ex 2, reference compound], the Cmax in data set [1] came out at 25 nM.
As to `COC(=O)Nc1ccc(-c2cnc(C3CCc4nc(-c5cc(Cl)ccc5-n5cnnn5)cc(=O)n43)[nH]2)cc1` (stereo not drawn) [Example 41, methyl[4-(2-{2-[5-chloro-2-(1H-tetrazol-1-yl)phenyl]-4-oxo-4,6,7,8-tetrahydropyrrolo[1,2-a]pyrimidin-6-yl}-1H-imidazol-5-yl)phenyl]carbamate], in data set [1], the Cmax was 2280 nM. Besides, the concentration for half-maximal inhibition (IC50) at Human Factor XIa (setting [3]) and at Human Factor XIa (setting [4]) was 6.5 nM each time.
As for `COC(=O)Nc1ccc(-c2[nH]c(Cn3ccc(-c4cc(Cl)ccc4-n4cnnn4)cc3=O)nc2Cl)cc1` [Example 57, methyl{4-[5-chloro-2-({4-[5-chloro-2-(1H-tetrazol-1-yl)phenyl]-2-oxo-1(2H)-pyridinyl}methyl)-1H-imidazol-4-yl]phenyl}carbamate], the Cmax in data set [1] amounted to 510 nM. Also, the IC50 on Human Factor XIa (setting [3]) and on Human Factor XIa (setting [4]) was 2.4 nM each time.
For `COC(=O)Nc1ccc(-c2[nH]c(C3CCc4cc(-c5cc(Cl)ccc5-n5cnnn5)cc(=O)n43)nc2Cl)cc1` (stereo not drawn) [Example 45, methyl[4-(4-chloro-2-{7-[5-chloro-2-(1H-tetrazol-1-yl)phenyl]-5-oxo-1,2,3,5-tetrahydro-3-indolizinyl}-1H-imidazol-5-yl)phenyl]carbamate], the Cmax in data set [1] is 1250 nM. In addition, the half-maximal inhibitory concentration (IC50) on Human Factor XIa (setting [3]) and on Human Factor XIa (setting [4]) was 15 nM each time.
For the molecule `COC(=O)Nc1ccc(-c2[nH]c(CNC(=O)/C=C/c3cc(Cl)ccc3-n3cnnn3)nc2Cl)cc1` [Comp Ex 3, reference compound], the Cmax in data set [1] worked out at 88 nM.
`COC(=O)Nc1ccc(-c2nnc(C3CCc4cc(-c5cc(Cl)ccc5-n5cnnn5)cc(=O)n43)[nH]2)cc1` (stereo not drawn) [Example 245, methyl[4-(5-{7-[5-chloro-2-(1H-tetrazol-1-yl)phenyl]-5-oxo-1,2,3,5-tetrahydro-3-indolizinyl}-4H-1,2,4-triazol-3-yl)phenyl]carbamate]: the IC50 at Human Factor XIa (setting [4]) worked out at 17 nM.
